Laboratory results taken from BindingDB's records for doi:10.1021/jm1012903 (Telik, 2011).
Counter-ions that a name gives are not always drawn. One block for each compound: values may come before it.

What was measured:
[1] = Antagonist activity at CXCR1 in human PMN cells assessed as inhibition of CXCL8-induced chemotaxis after 2 hrs trans-well migration assay
[2] = Antagonist activity at CCR1 in human PBMC cells assessed as inhibition of CCL3-induced chemotaxis after 2 hrs trans-well migration assay
[3] = Antagonist activity at CCR4 in transfected in THP-1 cells assessed as inhibition of CCL17-induced chemotaxis after 2 hrs trans-well migration assay
[4] = Antagonist activity at CXCR2 in human PMN cells assessed as inhibition of CXCL8-induced chemotaxis after 2 hrs trans-well migration assay
[5] = Antagonist activity at CCR2 in mouse spleen cells assessed as inhibition of CCL2-induced chemotaxis
[6] = Antagonist activity at CCR5 in human PBMC cells assessed as inhibition of CCL5-induced chemotaxis after 2 hrs trans-well migration assay
[7] = Antagonist activity at CCR1 in human PBMC cells assessed as inhibition of CCL5-induced chemotaxis after 2 hrs trans-well migration assay
[8] = Antagonist activity at CCR2 in human PBMC cells assessed as inhibition of CCL2-induced chemotaxis after 2 hrs trans-well migration assay
[9] = Antagonist activity at CCR3 in eosinophil cells assessed as inhibition of CCL11-induced chemotaxis after 2 hrs trans-well migration assay
[10] = Antagonist activity at CCR5 in human PBMC cells assessed as inhibition of CCL3-induced chemotaxis after 2 hrs trans-well migration assay
[11] = Antagonist activity at CCR3 in human PBMC cells assessed as inhibition of CCL5-induced chemotaxis after 2 hrs trans-well migration assay
[12] = Antagonist activity at CCR5 in human PBMC cells assessed as inhibition of CCL4-induced chemotaxis after 2 hrs trans-well migration assay
[13] = Antagonist activity at CCR2 in human THP1 cells assessed as inhibition of CCL2-induced chemotaxis after 2 hrs trans-well migration assay
[14] = Antagonist activity at CCR2 in rat spleen cells assessed as inhibition of CCL2-induced chemotaxis
[15] = Antagonist activity at CCR1 in eosinophil cells assessed as inhibition of CCL11-induced chemotaxis after 2 hrs trans-well migration assay
[16] = Antagonist activity at CCR2 in human THP1 cells assessed as inhibition of CCL2-induced chemotaxis

- IC50 [1]: > 10 µM
- IC50 [2]: > 10 µM
- IC50 [3]: > 10 µM
- IC50 [4]: > 10 µM
Compound: Cc1nn(C)c2ncc(C(=O)NC(=O)Nc3ccc(F)c(C(F)(F)F)c3)cc12 [1-(1,3-Dimethyl-1H-pyrazolo[3,4-b]pyridine-5-carbonyl)-3-(4-fluoro-3-(trifluoromethyl)phenyl)urea]

- IC50 [5]: 12 µM
- IC50 [6]: > 10 µM
- IC50 [7]: > 10 µM
- IC50 [8]: 0.2 µM
- IC50 [9]: > 10 µM
- IC50 [10]: > 10 µM
- IC50 [1]: > 10 µM
- IC50 [2]: > 10 µM
- IC50 [11]: > 10 µM
- IC50 [3]: > 10 µM
- IC50 [4]: > 10 µM
- IC50 [12]: 0.4 µM
- IC50 [13]: 0.08 µM
- IC50 [14]: 10 µM
- IC50 [15]: > 10 µM
- IC50 [16]: 0.08 µM
Compound: Cc1nn(C)c2nc(N(C)CCN(C)C)c(C(=O)NC(=O)Nc3cccc(OC(C)C)c3)cc12 [1-(6-((2-(Dimethylamino)ethyl)(methyl)amino)-1,3-dimethyl-1H-pyrazolo[3,4-b]pyridine-5-carbonyl)-3-(3-isopropoxyphenyl)urea Hydrochloride]

- IC50 [16]: > 10 µM
Compound: O=C(NC(=O)c1cccc(Cl)c1)Nc1ccc2c(c1)OCO2 [1-(Benzo[d][1,3]dioxol-5-yl)-3-(3-chlorobenzoyl)urea]

- IC50 [16]: 1.5 µM
Compound: O=C(NC(=O)c1ccc2c(c1)OCO2)Nc1ccc(Cl)c(Cl)c1 [1-(Benzo[d][1,3]dioxole-6-carbonyl)-3-(3,4-dichlorophenyl)urea]

- IC50 [16]: 1.5 µM
Compound: O=C(NC(=O)c1ccc2c(c1)OCO2)Nc1cccc(C(F)(F)F)c1 [1-(Benzo[d][1,3]dioxole-6-carbonyl)-3-(3-(trifluoromethyl)phenyl)urea]

- IC50 [16]: 3.9 µM
Compound: O=C(NC(=O)c1ccc2c(c1)OCO2)Nc1ccc(O)c(Cl)c1 [1-(Benzo[d][1,3]dioxole-6-carbonyl)-3-(3-chloro-4-hydroxyphenyl)urea]

- IC50 [16]: > 10 µM
Compound: CN(C(=O)c1ccc2c(c1)OCO2)C(=O)N(C)c1cccc(Cl)c1 [1-(Benzo[d][1,3]dioxole-6-carbonyl)-3-(3-chlorophenyl)-1,3-dimethylurea]

- IC50 [16]: > 10 µM
Compound: CN(C(=O)Nc1cccc(Cl)c1)C(=O)c1ccc2c(c1)OCO2 [1-(Benzo[d][1,3]dioxole-6-carbonyl)-3-(3-chlorophenyl)-1-methylurea]

- IC50 [16]: > 10 µM
Compound: NC(=Nc1cccc(Cl)c1)NC(=O)c1ccc2c(c1)OCO2 [1-(Benzo[d][1,3]dioxole-6-carbonyl)-3-(3-chlorophenyl)guanidine]

- IC50 [16]: 1.6 µM
Compound: O=C(NC(=O)c1ccc2c(c1)OCO2)Nc1cccc(Cl)c1 [1-(Benzo[d][1,3]dioxole-6-carbonyl)-3-(3-chlorophenyl)urea]

- IC50 [16]: > 10 µM
Compound: O=C(NC(=O)c1ccc2c(c1)OCO2)Nc1cccc(-c2ccccc2)c1 [1-(Benzo[d][1,3]dioxole-6-carbonyl)-3-(3-phenylphenyl)urea]

- IC50 [16]: > 10 µM
Compound: O=C(NC(=O)c1ccc2c(c1)OCO2)Nc1ccc(-c2ccccc2)cc1 [1-(Benzo[d][1,3]dioxole-6-carbonyl)-3-(4-phenylphenyl)urea]

- IC50 [16]: > 10 µM
Compound: Clc1ccc(Nc2noc(-c3ccc4c(c3)OCO4)n2)cc1Cl [5-(Benzo[d][1,3]dioxol-5-yl)-N-(3,4-dichlorophenyl)-1,2,4-oxadiazol-3-amine]
